Experimental data reported in patent US20090325933A1, “Pyrimidinone Derivatives and Their Use as a Drug” (Ipsen Pharma S.A.S., priority 2006, published 2009).
Like-named read-outs stand apart in the source and are kept apart here.

Target: T1, human CB2 receptors (Homo sapiens, UniProt P34972)
T1 construct: expressed in transfected cells; membrane preparations
Assay: Affinity for human CB2 cannabinoid receptors: inhibition of [3H]-CP55940 binding to transfected CHO-K1 cell membranes
Conditions: inhibition constant value range, [3H]-CP55940 1 nM, Cheng-Prusoff
Method: The affinity of the compounds of the present invention for the different sub-types of cannabinoid receptors was measured according to procedures analogous to those described hereafter for the human CB2 receptor.
Study of the Affinity of the Compounds for the Human CB2 Cannabinoid Receptors:
The affinity of the compounds of the invention for the human CB2 receptors is determined by measuring the inhibition of the binding of [^3H]-CP55940 to transfected CHO-K1 cell membrane preparations.
The CHO-K1 cells expressing the human CB2 receptors in stable fashion are cultured in an RPMI 1640 medium containing 10% foetal calf serum, 2 mM of glutamine, 100 U/ml of penicillin, 0.1 mg/ml of streptomycin and 0.5 mg/ml of G418. The cells are collected with 0.5 mM of EDTA and centrifuged at 500 g for 5 minutes at 4° C. The pellet is re-suspended in phosphate buffered saline medium (PBS) and centrifuged at 500 g for 5 minutes at 4° C. The pellet is re-suspended in a Tris 50 mM buffer medium at pH 7.4 and centrifuged at 500 g for 5 minutes at 4° C. The cells are lysed by sonication and centrifuged at 39,000 g for 10 minutes at 4° C. The pellet is re-suspended in the Tris 50 mM buffer medium at pH 7.4 and centrifuged at 50,000 g for 10 minutes at 4° C. The membranes obtained in this last pellet are stored at −80° C.
Measurement of the competitive inhibition of the binding of the [^3H]-CP55940 to the CB2 receptors is carried out in duplicate using 96-well polypropylene plates. The cell membranes (10 μg of proteins/well) are incubated with the [^3H]-CP55940 (1 nM) for 60 minutes at 25° C. in a Tris-HCl 50 mM buffer medium, pH 7.4, comprising 0.1% bovine serum albumin (BSA), 5 mM of MgCl2, and 50 μg/ml of bacitracin.
The bound [^3H]-CP55940 is separated from the free [^3H]-CP55940 by filtration through GF/C glass fibre filter plates (Unifilter, Packard) pre-impregnated with 0.1% polyethylenimine (P.E.I.), using a Filtermate 196 (Packard). The filters are washed with Tris-HCl 50 mM buffer, pH 7.4 at 0-4° C. and the radioactivity present is determined using a counter (Packard Top Count).
The specific binding is obtained by subtracting the non-specific binding (determined in the presence of 0.1 μM of WIN55212-2 from the total binding). The data are analyzed by computer-assisted non-linear regression (MDL). For each test, a Cheng-Prusoff correction is made in order to convert the IC50 to the inhibition constant, Ki.
where [L] is the concentration of the radioligand used in the test and Kd is the radioligand equilibrium dissociation constant.

T1 sequence (P34972 whole entry): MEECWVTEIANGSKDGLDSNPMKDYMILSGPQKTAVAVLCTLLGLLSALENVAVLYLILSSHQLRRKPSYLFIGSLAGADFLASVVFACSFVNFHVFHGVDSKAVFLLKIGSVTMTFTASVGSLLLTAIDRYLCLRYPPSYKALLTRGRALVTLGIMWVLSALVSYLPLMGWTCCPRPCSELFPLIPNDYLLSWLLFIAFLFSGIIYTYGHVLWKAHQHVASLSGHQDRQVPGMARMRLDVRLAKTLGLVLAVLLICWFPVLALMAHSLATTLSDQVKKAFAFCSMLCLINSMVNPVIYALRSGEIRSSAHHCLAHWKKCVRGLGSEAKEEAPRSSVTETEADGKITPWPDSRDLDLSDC

Row | Ki (read-out: Ki < 0.5 μM) [µM] | Ki (read-out: Ki < 5 μM) [µM] | SMILES
1 | < 0.5 | < 5 | Cc1csc2c(=O)n(CCN3CCCCC3)c(-c3ccc(-c4ccccc4)cc3)nc12 [Example 46]
2 | < 0.5 | < 5 | Cc1ccccc1-c1ccc(-c2nc3ccsc3c(=O)n2CCN2CCCCC2)cc1 [Example 54]
3 | < 0.5 | < 5 | Cc1sc2c(=O)n(CCN3CCCCC3)c(-c3ccc(-c4ccccc4)cc3)nc2c1C [Example 55]
4 |  | < 5 | CC(C)(C)c1cc2nc(-c3ccc(-c4ccccc4)cc3)n(CCN3CCCCC3)c(=O)c2s1 [Example 57]
5 | < 0.5 | < 5 | O=c1c2sc(-c3ccccc3)cc2nc(-c2ccc(-c3ccccc3)cc2)n1CCN1CCCCC1 [Example 58]
6 | < 0.5 | < 5 | Cc1ccc(-c2ccc(-c3nc4ccsc4c(=O)n3CCN3CCCCC3)cc2)cc1C [Example 60]
7 | < 0.5 | < 5 | Cc1cc2nc(-c3ccc(-c4ccccc4)cc3)n(CCN3CCCCC3)c(=O)c2s1 [Example 61]
8 | < 0.5 | < 5 | Cc1cccc(-c2ccc(-c3nc4ccsc4c(=O)n3CCN3CCCCC3)cc2)c1 [Example 62]
9 | < 0.5 | < 5 | O=c1c2sccc2nc(-c2ccc(-c3ccccc3Cl)cc2)n1CCN1CCCCC1 [Example 64]
10 | < 0.5 | < 5 | O=c1c2sccc2nc(-c2ccc(-c3ccccc3C(F)(F)F)cc2)n1CCN1CCCCC1 [Example 66]
11 | < 0.5 | < 5 | Cc1cc2nc(-c3ccc(-c4ccccc4C)cc3)n(CCN3CCCCC3)c(=O)c2s1 [Example 68]
12 | < 0.5 | < 5 | O=c1c2sccc2nc(-c2ccc(-c3ccccc3F)cc2)n1CCN1CCCCC1 [Example 69]
13 | < 0.5 | < 5 | Cc1cccc(-c2ccc(-c3nc4c(C)c(C)sc4c(=O)n3CCN3CCCCC3)cc2)c1 [Example 70]
14 | < 0.5 | < 5 | Cc1ccccc1-c1ccc(-c2nc3c(C)c(C)sc3c(=O)n2CCN2CCCCC2)cc1 [Example 75]
15 | < 0.5 | < 5 | COc1ccccc1-c1ccc(-c2nc3ccsc3c(=O)n2CCN2CCCCC2)cc1 [Example 76]
16 | < 0.5 | < 5 | Cc1cc2nc(-c3ccc(-c4ccccc4Cl)cc3)n(CCN3CCCCC3)c(=O)c2s1 [Example 77]
17 | < 0.5 | < 5 | Cc1cc2nc(-c3ccc(-c4ccccc4F)cc3)n(CCN3CCCCC3)c(=O)c2s1 [Example 78]
18 | < 0.5 | < 5 | O=c1c2sccc2nc(-c2ccc(-c3cccc(Cl)c3)cc2)n1CCN1CCCCC1 [Example 79]
19 | < 0.5 | < 5 | Cc1cc(C)cc(-c2ccc(-c3nc4ccsc4c(=O)n3CCN3CCCCC3)cc2)c1 [Example 80]
20 | < 0.5 | < 5 | Cc1cccc(C)c1-c1ccc(-c2nc3ccsc3c(=O)n2CCN2CCCCC2)cc1 [Example 81]
21 | < 0.5 | < 5 | O=c1c2sccc2nc(-c2ccc(-c3c(F)cccc3F)cc2)n1CCN1CCCCC1 [Example 82]
22 | < 0.5 | < 5 | Cc1cc2nc(-c3ccc(-c4ccccc4C(F)(F)F)cc3)n(CCN3CCCCC3)c(=O)c2s1 [Example 83]
23 | < 0.5 | < 5 | Cc1cccc(-c2ccc(-c3nc4cc(C)sc4c(=O)n3CCN3CCCCC3)cc2)c1 [Example 84]
24 | < 0.5 | < 5 | Cc1cc2nc(-c3ccc(-c4cccc(F)c4)cc3)n(CCN3CCCCC3)c(=O)c2s1 [Example 85]
25 | < 0.5 | < 5 | Cc1cc2nc(-c3ccc(-c4cccc(Cl)c4)cc3)n(CCN3CCCCC3)c(=O)c2s1 [Example 86]
26 | < 0.5 | < 5 | Cc1cc2nc(-c3ccc(-c4cccc(C(F)(F)F)c4)cc3)n(CCN3CCCCC3)c(=O)c2s1 [Example 87]
27 | < 0.5 | < 5 | COc1cccc(-c2ccc(-c3nc4cc(C)sc4c(=O)n3CCN3CCCCC3)cc2)c1 [Example 88]
28 | < 0.5 | < 5 | Cc1cc2nc(-c3ccc(-c4c(Cl)cccc4Cl)cc3)n(CCN3CCCCC3)c(=O)c2s1 [Example 90]
29 | < 0.5 | < 5 | Cc1cc2nc(-c3ccc(-c4c(C)cccc4C)cc3)n(CCN3CCCCC3)c(=O)c2s1 [Example 91]

The next lines start with the compound.

Row | SMILES | Ki (read-out: Ki < 0.5 μM) [µM] | Ki (read-out: Ki < 5 μM) [µM]
30 | O=c1c2sccc2nc(-c2ccc(-c3cccs3)cc2)n1CCN1CCCCC1 [Example 39] | < 0.5 | < 5
31 | O=c1c2sccc2nc(-c2ccc(-c3cccs3)cc2)n1CCN1CCOCC1 [Example 40] | < 0.5 | < 5
32 | CC(C)(C)c1ccc(-c2ccc(-c3nc4ccsc4c(=O)n3CCN3CCCCC3)cc2)cc1 [Example 41] |  | < 5
33 | CC1CCCN(CCn2c(-c3ccc(-c4ccccc4)cc3)nc3ccsc3c2=O)C1 (stereo not drawn) [Example 42] | < 0.5 | < 5
34 | CC1CCN(CCn2c(-c3ccc(-c4ccccc4)cc3)nc3ccsc3c2=O)CC1 [Example 43] | < 0.5 | < 5
35 | O=c1c2sc3ccccc3c2nc(-c2ccc(-c3ccccc3)cc2)n1CCN1CCCCC1 [Example 44] | < 0.5 | < 5
36 | O=c1c2sc3ccccc3c2nc(-c2ccc(-c3ccccc3)cc2)n1CCN1CCOCC1 [Example 45] |  | < 5
37 | O=c1c2ccsc2nc(-c2ccc(-c3ccccc3)cc2)n1CCC1CCOCC1 [Example 47] |  | < 5
38 | O=c1c2ccsc2nc(-c2ccc(-c3ccccc3)cc2)n1CCN1CCOCC1 [Example 48] |  | < 5
39 | O=c1c2ccsc2nc(-c2ccc(-c3ccccc3)cc2)n1CCN1CCCCC1 [Example 49] | < 0.5 | < 5
40 | O=c1c2sccc2nc(-c2ccc3cc4ccccc4cc3c2)n1CCN1CCCCC1 [Example 50] | < 0.5 | < 5
41 | O=c1c2occc2nc(-c2ccc(-c3ccccc3)cc2)n1CCN1CCCCC1 [Example 51] |  | < 5
42 | O=c1c2sccc2nc(-c2ccc3[nH]c4ccccc4c3c2)n1CCN1CCCCC1 [Example 52] |  | < 5
43 | O=c1c2sccc2nc(C2CCC(c3ccccc3)CC2)n1CCN1CCCCC1 (stereo not drawn) [Example 53] | < 0.5 | < 5
44 | O=c1c2sccc2nc(-c2ccc(-c3ccc(Cl)c(Cl)c3)cc2)n1CCN1CCCCC1 [Example 56] | < 0.5 | < 5
45 | O=c1c2sccc2nc(-c2ccc(-c3ccccc3)cc2)n1CCC1C[C@H]2CC[C@@H]1C2 (stereo partly drawn) [Example 59] |  | < 5
46 | O=c1c2sccc2nc(-c2ccc(-c3cccc(F)c3)cc2)n1CCN1CCCCC1 [Example 63] | < 0.5 | < 5
47 | Cc1ccc(-c2ccc(-c3nc4ccsc4c(=O)n3CCN3CCCCC3)cc2)cc1 [Example 65] | < 0.5 | < 5
48 | O=c1c2sccc2nc(-c2ccc(-c3ccccc3)c(F)c2)n1CCN1CCCCC1 [Example 67] | < 0.5 | < 5
49 | O=c1c2sccc2nc(-c2ccc(-c3ccccc3)cc2)n1CCC1=CCCCC1 [Example 71] | < 0.5 | < 5
50 | CC1CCCC(C)N1CCn1c(-c2ccc(-c3ccccc3)cc2)nc2ccsc2c1=O (stereo not drawn) [Example 72] |  | < 5
51 | O=c1c2sccc2nc(-c2ccc(-c3ccc(F)cc3)cc2)n1CCN1CCCCC1 [Example 73] | < 0.5 | < 5
52 | O=c1c2sccc2nc(-c2ccc(-c3cccc(C(F)(F)F)c3)cc2)n1CCN1CCCCC1 [Example 74] | < 0.5 | < 5
53 | COc1cccc(-c2ccc(-c3nc4ccsc4c(=O)n3CCN3CCCCC3)cc2)c1 [Example 89] | < 0.5 | < 5
54 | O=c1c2sccc2nc(-c2ccc(-c3cc(Cl)cc(Cl)c3)cc2)n1CCN1CCCCC1 [Example 92] | < 0.5 | < 5
